Literature values, collected in patent publication US11406636B2, “Combined pharmaceutical composition” (Alepharma, Sociedad Anónima Promotora de inversión de …, priority 2017, dated 2022).
Read-outs that look alike come from different tables or passages of the source.

Columns and labels:
CML formation = settings: bovine serum with ribose, presence or absence of natural compounds
[1] = test system: streptozotocin-induced diabetic rat; settings: for levels of methylglyoxal: increased by 68% in diabetic rats versus normal controls; for levels of glyoxal: increased by 115% in diabetic rats versus normal controls
[2] = test system: bovine serum albumin, ribonuclease A and human hemoglobin; settings: in vitro
diabetic rats = settings: 200 mg/kg weight orally for 8 weeks
[3] = not given; remark: listed apart in the source
[4] = physiological conditions, dose-dependent, forming adducts
[5] = within the first hour under physiological conditions

## C[C@@H]1O[C@@H](O[C@@H]2[C@@H](O)[C@H](OCCc3ccc(O)c(O)c3)O[C@H](CO)[C@H]2OC(=O)/C=C/c2ccc(O)c(O)c2)[C@H](O)[C@H](O)[C@H]1O [acteoside]
CML formation
  formation of CML: increase the formation of CML

## CC1(C)[C@@H](O[C@H]2O[C@H](C(=O)O)[C@@H](O)[C@H](O)[C@H]2O[C@@H]2O[C@H](C(=O)O)[C@@H](O)[C@H](O)[C@H]2O)CC[C@]2(C)[C@H]3C(=O)C=C4[C@@H]5C[C@@](C)(C(=O)O)CC[C@]5(C)CC[C@@]4(C)[C@]3(C)CC[C@@H]12 [glycyrrhizin]
CML formation
  formation of CML: significantly inhibited the formation of CML

## Cc1ncc(C[n+]2csc(CCO)c2C)c(N)n1 [thiamine, Thiamine]
[1]
  levels of methylglyoxal: normalized
  levels of glyoxal: normalized
[1]; increased by 74% in diabetic rats
  levels of N-carboxymethyl-lysine (CML): normalized
[1]; increased by 118% in diabetic rats
  levels of N-carboxyethyl-lysine (CEL): normalized
[2]
  inhibition of the formation of AGEs, compared with aminoguanidine: more effective than aminoguanidine

## O=C(O)c1cc(O)c(O)c(O)c1 [gallic acid]
CML formation
  formation of CML: increase the formation of CML

## Cc1ncc(CO)c(CN)c1O [pyridoxamine]
[2]
  inhibition of the formation of AGEs, compared with aminoguanidine: more effective than aminoguanidine

## C/C(=C(\CCOP(=O)(O)O)SC(=O)c1ccccc1)N(C=O)Cc1cnc(C)nc1N [benfotiamine]
[1]
  levels of methylglyoxal: normalized
  levels of glyoxal: normalized

## COc1cc(/C=C/C(=O)CC(=O)/C=C/c2ccc(O)c(OC)c2)ccc1O [curcumin, Curcumin]
Diabetic rats
  accelerated accumulation of AGEs in the collagen, detected by ELISA: prevented
  accumulation of lipid peroxidation products in serums: significantly reduced
  collagen cross-linking in the tendon of the tail and skin: extensively prevented
  oxidative stress: significantly reduced

## CC1(C)[C@@H](O)CC[C@]2(C)[C@H]3C(=O)C=C4[C@@H]5C[C@@](C)(C(=O)O)CC[C@]5(C)CC[C@@]4(C)[C@]3(C)CC[C@@H]12 [glycylrhetinic acid]
CML formation
  formation of CML: significantly inhibited the formation of CML

## O=c1c(O)c(-c2ccc(O)c(O)c2)oc2cc(O)cc(O)c12 [quercetin, Quercetin]
[4]
  glyoxal trapped: up to 50%
[5]
  glyoxal trapped: up to 30%
[3]; [4]
  methylglyoxal trapped: ≤ 80%
[3]; [5]
  methylglyoxal trapped: ≤ 50%
CML formation
  formation of CML: significantly inhibited the formation of CML

## Cc1ncc(CO)c(CO)c1O [pyridoxine, Pyridoxine]
[2]
  inhibition of the formation of AGEs, compared with aminoguanidine: more effective than aminoguanidine
